Measured values as given in patent US10183015B2, “Heterocyclic compounds and methods of use” (Medivation Technologies LLC, priority 2015, dated 2019).
Where “and” joins values, the source holds several entries; their conditions need not be identical. Identical values can stand only once.

How the values were obtained:
SREBP = assay: SREBP-responsive promoter luciferase reporter assay in HepG2_LSSprom cells; format: cell-based; conditions: 6 hours of treatment, medium without serum; read-out: IC50 for luciferase expression
Experimental: HepG2_LSSprom cells were cultured in DMEM with 10% fetal bovine serum and 1% penicillin/streptomycin for 24 hours. Cells were then treated with increasing concentrations of Compound #37 or an equal volume of DMSO in culture medium without serum. Luciferase expression was measured and compared after 6 hours of treatment.

[1] = Short-term Paigen-diet NASH mouse model: body weight, food intake, mortality; format: in vivo
From the text: Results. […] Mice were maintained on specific diet and were sacrificed after 9 days of diet.

[2] = system: diet-induced NASH obese insulin resistant mice; assay: DIN mouse model: blood glucose, plasma insulin, HOMA-IR; format: in vivo; conditions: for HOMA-IR index reduction / HOMA-IR day 0 / blood glucose day 0 / plasma insulin day 0: 20 mg/kg; for HOMA-IR day 0 / blood glucose day 0 / plasma insulin day 0: day 0 (baseline); for HOMA-IR day 42 / blood glucose day 42 / plasma insulin day 42: day 42, 20 mg/kg; for HOMA-IR day 70 / blood glucose day 70 / plasma insulin day 70: day 70, 20 mg/kg;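 on blood glucose day 0: blood glucose in mg/dL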;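 on blood glucose day 42: blood glucose in mg/dL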;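 on blood glucose day 70: blood glucose in mg/dL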
Experimental: (§1) Male C57Bl/6J mice (8 weeks old) were housed in enriched ventilated cages (31×12.5×12.7 cm) throughout the experimental phase. Animals' cages litters were changed at least once a week. Animal were housed 5 per cage on inverted 12-hour light cycle (at 09:00 am lights off), 22±2° C. and 55±10% relative humidity. The acclimation period was 20 days. During the acclimation period, all mice were fed a standard diet (RM1 (E) 801492, SDS) and tap water ad libitum. After the acclimation period, mice were fed with the DIN diet (60% fat, cholesterol enriched) and fructose-enriched tap water ad libitum until the end of the experiment.
(§2) At 6 weeks of diet, mice were 4-hour fasted (09:00 am to 1:00 pm) and blood (150 μl/EDTA) was collected at 01:00 pm by retro-orbital bleeding under isoflurane anesthesia. Mice were then allocated in 2 homogenous groups (n=12/group) according to their plasma levels of ALT (average levels: 685U/L), AST (average levels: 627U/L) and HOMA-IR index (average value: 4.7), into 2 homogenous groups (see values at day 0 in Tables 15A and 15B ALT/AST and Tables 16A and 16B for HOMA-IR). Mice were then treated once daily by oral gavage with vehicle (Group 1) or Compound #37 at 20 mg/kg (Group 2) for 70 days.
To investigate whether Compound #37 improves pre-existing steatosis/NASH pathology, a study was conducted using a 16-week diet-induced NASH mouse model. In this model, mice develop steatosis that progresses with inflammation and fibrosis that mimic many of the observed pathologies in human nonalcoholic fatty liver disease (NAFLD) and NASH (Hebbard & George, 2010). For 6 weeks, mice were fed a high-fat, high-cholesterol diet and provided drinking water containing fructose to induce liver pathology (Charlton et al, 2011). After 6 weeks, the mice were divided into 2 groups with similar mean aspartate aminotransferase (AST) and alanine aminotransferase (ALT) values (n=12 mice), although it should be noted that AST and ALT concentrations within both groups were higher and with greater variability than anticipated (e.g., mean ALT 677 U/L [SD, 401 U/L] in the vehicle control group and 693 U/L [SD, 365 U/L] in the Compound #37 group). After the animals were divided into 2 groups, the diet was continued for 10 additional weeks during which time 1 group received vehicle and the other was treated with 20 mg/kg/day Compound #37.

ACC1 = assay: DIN mouse model: hepatic ACC1 gene expression; format: in vivo; set-up: key to 2^DDct: expression relative to vehicle group, normalized to 18S; conditions: for 2^DDct / ACC1 / DDct / Dct: Gene Expression: ACC1, 20 mg/kg group; for 18S: Gene Expression: ACC1 table, 18S reference, 20 mg/kg group
Experimental: Gene expression analysis. Hepatic expression levels of genes involved in lipid metabolism (FAS, SREBP1, ACC1, SCD1), cholesterol metabolism (HMG-CoAR, LDLR), SREBP proteolysis (SCAP, INSIG1), ER stress (PERK), oxidative stress (NRF2), inflammation (MCP-1), and fibrosis (collagen 1α1) were quantified by RTqPCR. Expression level was normalized to 18S gene expression and relative expression to vehicle group was calculated with the […] method.
as §1, §2
Hepatic expression levels of genes involved in lipid (FAS, SREBP1, ACC1, SCD1), cholesterol metabolism (HMG-CoAR, LDLR), in SREBP proteolysis (SCAP, INSIG1), in ER stress (PERK), oxidative stress (NRF2), and inflammation (MCP-1) were not changed. However, expression of collagen 1α1, involved in liver fibrosis, was reduced by 66% in mice treated with Compound #37 (p<0.05 vs. vehicle).

[3] = ob/ob mice: tolerability, weight gain and food intake; format: in vivo; conditions: over 8 weeks, all treatment groups
Experimental: Groups of mice were either untreated (group 1) or treated for 8 weeks with vehicle (group 2), or with Compound #37 at 5 mg/kg (group 3), 10 mg/kg (group 4), or 20 mg/kg (group 5). Treatment was daily by oral gavage in vehicle (20% HPβCD). Values are presented as mean±standard error of the mean (sem). A t test was performed to compare the untreated group and the vehicle group. Then Compound #37-treated groups were compared to the vehicle-treated group with a 1-way ANOVA+Dunnett's post-test. […] For each test, a p<0.05 was considered significant. Of note, animal #39, group 1 was excluded from the statistical analysis, due to low values for all parameters measured. Some other values were considered as out-liners and excluded from the statistical analysis when the value was far below the mean minus 2 SD. Excluded values are marked with an asterisk in Tables 21-23.
These plasma lipid results are consistent with SCAP/SREBP pathway inhibition seen in tissue-specific SCAP knockout mice (Horton et al, 2002) and with inhibition of SREBP in vivo (Moon et al, 2012).

With `CC(C)Cc1cc(-c2nc(-c3ccc(NS(=O)(=O)C(F)(F)F)cc3Cl)cs2)ccn1` [Compound 37, N-(3-chloro-4-(2-(2-isobutylpyridin-4-yl)thiazol-4-yl)phenyl)-1,1,1-trifluoromethanesulfonamide] the IC50 (SREBP) was 2700 nM, the “differences in weight vs vehicle control at end of 3-week dosing period” value ([1]; 5 mg/kg/day and 20 mg/kg/day, surviving animals) was “no differences in weight” and the mice died ([1]; 20 mg/kg/day, group of 10 mice (1 on day 7, 2 on day 9, 1 on day 11)) was 4 mice. The “death of additional mice by day 9” value ([1]; 40 mg/kg/day, group of 10 mice) was 3 mice, the “death of mice by day 7” value ([1]; 40 mg/kg/day, group of 10 mice) was 3 mice and the mean weight loss ([1]; 40 mg/kg/day, over 4 days of treatment) was over 20%. For the same compound, the mice died ([1]; mouse, in vivo) was “No mice died”, the HOMA-IR index reduction ([2]; day 42, not significant) was 50% and the HOMA-IR index reduction ([2]; day 70, not significant) was 40%. The “HOMA-IR day 0” value ([2]; group mean, n 12) was 4.8 [mM × μU/mL]/22.5, the “blood glucose day 0” value ([2]; group mean, n 12) was 104 mg/dL and the “plasma insulin day 0” value ([2]; group mean, n 12) was 17 μU/mL. For the same compound, the “HOMA-IR day 0” value ([2]; individual animals) was 2.7 [mM × μU/mL]/22.5 and 4.1 [mM × μU/mL]/22.5 and 23.6 [mM × μU/mL]/22.5 and 2.1 [mM × μU/mL]/22.5 (2×) and 2.3 [mM × μU/mL]/22.5 (2×) and 1.9 [mM × μU/mL]/22.5 and 1.8 [mM × μU/mL]/22.5 and 3.8 [mM × μU/mL]/22.5 and 1.6 [mM × μU/mL]/22.5 and 8.8 [mM × μU/mL]/22.5, the “blood glucose day 0” value ([2]; individual animals) was 97 mg/dL and 113 mg/dL (2×) and 123 mg/dL and 106 mg/dL and 79 mg/dL and 95 mg/dL and 114 mg/dL and 102 mg/dL and 89 mg/dL and 112 mg/dL and 103 mg/dL and the “plasma insulin day 0” value ([2]; individual animals) was 11.3 μU/mL and 14.7 μU/mL and 77.6 μU/mL and 8.1 μU/mL and 11.9 μU/mL and 6.9 μU/mL and 7.5 μU/mL (2×) and 13.6 μU/mL and 8.4 μU/mL and 31.9 μU/mL and 9 μU/mL. The “HOMA-IR day 42” value ([2]; group mean, n 12) was 3.7 [mM × μU/mL]/22.5, the “blood glucose day 42” value ([2]; group mean, n 12) was 133 mg/dL and the “plasma insulin day 42” value ([2]; group mean, n 12) was 11.5 μU/mL. The “HOMA-IR day 42” value ([2]; individual animals) was 3.8 [mM × μU/mL]/22.5 (2×) and 3.3 [mM × μU/mL]/22.5 and 5.0 [mM × μU/mL]/22.5 and 7.7 [mM × μU/mL]/22.5 and 2.8 [mM × μU/mL]/22.5 (3×) and 1.9 [mM × μU/mL]/22.5 and 3.7 [mM × μU/mL]/22.5 and 3.5 [mM × μU/mL]/22.5 and 3.4 [mM × μU/mL]/22.5, the “blood glucose day 42” value ([2]; individual animals) was 133 mg/dL and 139 mg/dL (2×) and 112 mg/dL and 126 mg/dL and 128 mg/dL and 132 mg/dL and 131 mg/dL and 138 mg/dL and 151 mg/dL and 140 mg/dL and 127 mg/dL and the “plasma insulin day 42” value ([2]; individual animals) was 11.6 μU/mL and 9.5 μU/mL and 18.0 μU/mL and 24.8 μU/mL and 8.9 μU/mL and 11.8 μU/mL and 5.8 μU/mL and 8.2 μU/mL (2×) and 10.0 μU/mL and 10.2 μU/mL and 10.7 μU/mL. The “HOMA-IR day 70” value ([2]; group mean, n 11) was 4.5 [mM × μU/mL]/22.5, the “blood glucose day 70” value ([2]; group mean, n 11) was 130 mg/dL and the “plasma insulin day 70” value ([2]; group mean, n 11) was 13.7 μU/mL. For the same compound, the “HOMA-IR day 70” value ([2]; individual animals) was 7.5 [mM × μU/mL]/22.5 and 2.6 [mM × μU/mL]/22.5 and 6.0 [mM × μU/mL]/22.5 and 5.8 [mM × μU/mL]/22.5 and 3.9 [mM × μU/mL]/22.5 and 2.8 [mM × μU/mL]/22.5 and 6.5 [mM × μU/mL]/22.5 and 2.5 [mM × μU/mL]/22.5 and 3.8 [mM × μU/mL]/22.5 and 3.1 [mM × μU/mL]/22.5 and 4.5 [mM × μU/mL]/22.5, the “blood glucose day 70” value ([2]; individual animals) was 138 mg/dL and 132 mg/dL and 135 mg/dL and 157 mg/dL and 136 mg/dL and 124 mg/dL and 127 mg/dL and 100 mg/dL and 114 mg/dL and 130 mg/dL and 141 mg/dL and the “plasma insulin day 70” value ([2]; individual animals) was 21.9 μU/mL and 8.0 μU/mL and 18.1 μU/mL and 15.1 μU/mL and 11.5 μU/mL and 9.3 μU/mL and 20.6 μU/mL and 10.3 μU/mL and 13.4 μU/mL and 9.8 μU/mL and 12.9 μU/mL. The “2^DDct” value (ACC1; individual animal) was 1.62 and 1.20 and 0.21 and 1.19 and 0.20 and 1.29 and 0.79 and 0.67 and 0.34 and 0.23 and 1.77, the ACC1 (ACC1; individual animal) was 27.74 and 28.17 and 31 and 28.06 and 30.55 and 28.11 and 27.95 and 28.97 and 28.95 and 29.55 and 27.41 and the DDct (ACC1; individual animal) was −0.69 and −0.26 and 2.28 and −0.25 and 2.32 and −0.36 and 0.34 and 0.58 and 1.57 and 2.12 and −0.82. The Dct (ACC1; individual animal) was 15.19 and 15.62 and 18.16 and 15.63 and 18.2 and 15.52 and 16.22 and 16.46 and 17.45 and 18 and 15.06, the “2^DDct” value (ACC1; mean, n 11) was 0.86 and the ACC1 (ACC1; mean, n 11) was 28.8. The DDct (ACC1; mean, n 11) was 0.62, the Dct (ACC1; mean, n 11) was 16.5 and the 18S (ACC1; individual animal, 20 mg/kg) was 12.55 (2×) and 12.84 and 12.43 and 12.35 (2×) and 12.59 and 11.73 and 12.51 and 11.5 and 11.55. The 18S (ACC1; mean, n 11) was 12.3 and the tolerability [3] was “generally well tolerated”.
